Source: ChEMBL document CHEMBL1201861, “Genomics of Drug Sensitity in Cancer screening data, Wellcome Trust Sanger Institute”

Tests used:
Test in all cases: cells
Assay type in all cases: functional, cell-based, Homo sapiens
HT-144 = details: Homo sapiens, HT-144
Description: SANGER: Inhibition of human HT-144 cell growth in a cell viability assay.

Calu-6 = details: Homo sapiens, Calu-6;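 further: growth of human Calu-6 cells, read out by a cell viability assay, IC50 marking inhibition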
Description: SANGER: Inhibition of human Calu-6 cell growth in a cell viability assay.

LU-139 = details: Homo sapiens, LU-139
Description: SANGER: Inhibition of human LU-139 cell growth in a cell viability assay.

SK-N-FI = details: Homo sapiens, SK-N-FI;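 further: cell viability assay measuring growth inhibition of human SK-N-FI cells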
Description: SANGER: Inhibition of human SK-N-FI cell growth in a cell viability assay.

no-11 = details: Homo sapiens;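 further: growth inhibition of human NO-11 cells, read out with a cell viability assay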
Description: SANGER: Inhibition of human no-11 cell growth in a cell viability assay.

EOL1 = details: Homo sapiens, EOL1;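 further: growth inhibition of EoL-1 cells, read out by a cell viability assay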
Description: SANGER: Inhibition of human EoL-1-cell cell growth in a cell viability assay.

NCI-H1304 = details: Homo sapiens, NCI-H1304;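 further: growth inhibition of the cancer cell line, measured in a cell viability assay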
Description: SANGER: Inhibition of human NCI-H1304 cell growth in a cell viability assay.

KM12 = details: Homo sapiens, KM12;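 further: KM12 cell growth inhibition, read out with a cell viability assay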
Description: SANGER: Inhibition of human KM12 cell growth in a cell viability assay.

BT-474 = details: Homo sapiens, BT-474
Description: SANGER: Inhibition of human BT-474 cell growth in a cell viability assay.

RXF 393 = details: Homo sapiens, RXF 393;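 further: growth inhibition of human RXF 393 cells, read out with a cell viability assay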
Description: SANGER: Inhibition of human RXF393 cell growth in a cell viability assay.

NCI-H2126 = details: Homo sapiens, NCI-H2126;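 further: growth inhibition of the cancer cell line, determined with a cell viability readout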
Description: SANGER: Inhibition of human NCI-H2126 cell growth in a cell viability assay.

C8166 = details: Homo sapiens, C8166;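 further: growth inhibition of human C8166 cells measured by a cell viability assay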
Description: SANGER: Inhibition of human C8166 cell growth in a cell viability assay.

CTV-1 = details: Homo sapiens, CTV-1;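 further: growth inhibition of the cell line, read out with a cell viability assay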
Description: SANGER: Inhibition of human CTV-1 cell growth in a cell viability assay.

LU-134-A = details: Homo sapiens, LU-134-A
Description: SANGER: Inhibition of human LU-134-A cell growth in a cell viability assay.

EW-16 = details: Homo sapiens, EW-16;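 further: growth inhibition of human EW-16 cells, read out as cell viability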
Description: SANGER: Inhibition of human EW-16 cell growth in a cell viability assay.

LAN-6 = details: Homo sapiens, LAN-6;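 further: growth inhibition of LAN-6 cells, determined with a cell viability assay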
Description: SANGER: Inhibition of human LAN-6 cell growth in a cell viability assay.

Becker = details: Homo sapiens, Becker;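 further: growth inhibition of Becker cells, read out with a cell viability assay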
Description: SANGER: Inhibition of human Becker cell growth in a cell viability assay.

SJSA-1 = details: Homo sapiens, SJSA-1;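 further: growth inhibition of human SJSA-1 cells, read out through a cell viability measurement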
Description: SANGER: Inhibition of human SJSA-1 cell growth in a cell viability assay.

SF-126 = details: Homo sapiens, SF-126;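 further: growth inhibition of human SF126 cells, read out with a cell viability assay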
Description: SANGER: Inhibition of human SF126 cell growth in a cell viability assay.

CTB-1 = details: Homo sapiens, CTB-1
Description: SANGER: Inhibition of human CTB-1 cell growth in a cell viability assay.

HCC2218 = details: Homo sapiens, HCC2218;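 further: cell viability assay read-out, with IC50 given as the concentration that inhibits growth of the cell line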
Description: SANGER: Inhibition of human HCC2218 cell growth in a cell viability assay.

SCH = details: Homo sapiens, SCH;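 further: growth inhibition of human SCH cells, read out in a cell viability assay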
Description: SANGER: Inhibition of human SCH cell growth in a cell viability assay.

ES6 = details: Homo sapiens, ES6;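 further: growth inhibition of human ES6 cells, read out with a cell viability assay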
Description: SANGER: Inhibition of human ES6 cell growth in a cell viability assay.

LB2518-MEL = details: Homo sapiens, LB2518-MEL;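 further: growth inhibition of human LB2518-MEL cells, measured with a cell viability assay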
Description: SANGER: Inhibition of human LB2518-MEL cell growth in a cell viability assay.

TE-6 = details: Homo sapiens, TE-6;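 further: growth inhibition of TE-6 cells, read out with a cell viability assay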
Description: SANGER: Inhibition of human TE-6 cell growth in a cell viability assay.

HCC1187 = details: Homo sapiens, HCC1187;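 further: growth inhibition of HCC1187 cells, read out with a cell viability assay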
Description: SANGER: Inhibition of human HCC1187 cell growth in a cell viability assay.

COLO-320-HSR = details: Homo sapiens, COLO-320-HSR;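 further: growth inhibition of COLO-320-HSR cells, determined with a cell viability assay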
Description: SANGER: Inhibition of human COLO-320-HSR cell growth in a cell viability assay.

COLO-824 = details: Homo sapiens, COLO-824
Description: SANGER: Inhibition of human COLO-824 cell growth in a cell viability assay.

NMC-G1 = details: Homo sapiens, NMC-G1;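 further: growth inhibition of the NMC-G1 cell line, measured with a cell viability read-out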
Description: SANGER: Inhibition of human NMC-G1 cell growth in a cell viability assay.

HEL = details: Homo sapiens, HEL;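 further: growth inhibition of HEL cells, read out with a cell viability assay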
Description: SANGER: Inhibition of human HEL cell growth in a cell viability assay.

VA-ES-BJ = details: Homo sapiens, VA-ES-BJ;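 further: growth inhibition of the VA-ES-BJ cell line, read out by a cell viability assay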
Description: SANGER: Inhibition of human VA-ES-BJ cell growth in a cell viability assay.

D-263MG = details: Homo sapiens, D-263MG
Description: SANGER: Inhibition of human D-263MG cell growth in a cell viability assay.

A388 = details: Homo sapiens, A388;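 further: growth inhibition of human A388 cells, read out with a cell viability assay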
Description: SANGER: Inhibition of human A388 cell growth in a cell viability assay.

TGW = details: Homo sapiens, TGW;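 further: growth inhibition of human TGW cells, read out with a cell viability assay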
Description: SANGER: Inhibition of human TGW cell growth in a cell viability assay.

ALL-PO = details: Homo sapiens, ALL-PO;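 further: growth inhibition of ALL-PO cells, read out by a cell viability assay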
Description: SANGER: Inhibition of human ALL-PO cell growth in a cell viability assay.

SNU-5 = details: Homo sapiens, SNU-5;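 further: cell viability readout used to measure growth inhibition in human NCI-SNU-5 cells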
Description: SANGER: Inhibition of human NCI-SNU-5 cell growth in a cell viability assay.

HCC2157 = details: Homo sapiens, HCC2157;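 further: growth inhibition of the cancer cell line, read out as cell viability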
Description: SANGER: Inhibition of human HCC2157 cell growth in a cell viability assay.

MFH-ino = details: Homo sapiens, MFH-ino;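 further: growth inhibition of human MFH-ino cells, read out by a cell viability assay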
Description: SANGER: Inhibition of human MFH-ino cell growth in a cell viability assay.

PSN1 = details: Homo sapiens, PSN1;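 further: suppression of growth of human PSN1 cells, read out by a cell viability assay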
Description: SANGER: Inhibition of human PSN1 cell growth in a cell viability assay.

A253 cell line = details: Homo sapiens, A253;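 further: growth inhibition of A253 cells, read out with a cell viability assay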
Description: SANGER: Inhibition of human A253 cell growth in a cell viability assay.

NCI-H526 = details: Homo sapiens, NCI-H526;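 further: growth inhibition of the human NCI-H526 cell line, measured by a cell viability assay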
Description: SANGER: Inhibition of human NCI-H526 cell growth in a cell viability assay.

JAR = details: Homo sapiens, JAR;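 further: growth inhibition of human JAR cells determined with a cell viability assay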
Description: SANGER: Inhibition of human JAR cell growth in a cell viability assay.

SNU1 = details: Homo sapiens, SNU1;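 further: growth inhibition of human NCI-SNU-1 cells, measured with a cell viability assay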
Description: SANGER: Inhibition of human NCI-SNU-1 cell growth in a cell viability assay.

MS-1 = details: Homo sapiens, MS-1;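 further: growth inhibition of MS-1 cells, read out by cell viability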
Description: SANGER: Inhibition of human MS-1 cell growth in a cell viability assay.

CAS-1 = details: Homo sapiens, CAS-1;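 further: growth inhibition of CAS-1 cells, measured with a cell viability assay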
Description: SANGER: Inhibition of human CAS-1 cell growth in a cell viability assay.

KGN = details: Homo sapiens, KGN;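 further: growth inhibition of KGN cells, read out with a cell viability assay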
Description: SANGER: Inhibition of human KGN cell growth in a cell viability assay.

KY821 = details: Homo sapiens, KY821;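 further: growth inhibition of human KY821 cells, read out by a cell viability assay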
Description: SANGER: Inhibition of human KY821 cell growth in a cell viability assay.

COc1cc2ncn(-c3cc(OCc4ccccc4S(C)(=O)=O)c(C#N)s3)c2cc1OC [GSK-319347A]
IC50 (HT-144): > 5 µM | IC50 (Calu-6): > 5 µM | IC50 (LU-139): > 5 µM | IC50 (SK-N-FI): > 5 µM | IC50 (no-11): > 5 µM | IC50 (EOL1): > 5 µM | IC50 (NCI-H1304): > 5 µM | IC50 (KM12): > 5 µM | IC50 (BT-474): > 5 µM | IC50 (RXF 393): > 5 µM | IC50 (NCI-H2126): > 5 µM | IC50 (C8166): > 5 µM | IC50 (CTV-1): > 5 µM | IC50 (LU-134-A): > 5 µM | IC50 (EW-16): > 5 µM | IC50 (LAN-6): > 5 µM | IC50 (Becker): > 5 µM | IC50 (SJSA-1): > 5 µM | IC50 (SF-126): > 5 µM | IC50 (CTB-1): > 5 µM | IC50 (HCC2218): > 5 µM | IC50 (SCH): > 5 µM | IC50 (ES6): > 5 µM | IC50 (LB2518-MEL): > 5 µM | IC50 (TE-6): > 5 µM | IC50 (HCC1187): > 5 µM | IC50 (COLO-320-HSR): > 5 µM | IC50 (COLO-824): > 5 µM | IC50 (NMC-G1): > 5 µM | IC50 (HEL): > 5 µM | IC50 (VA-ES-BJ): > 5 µM | IC50 (D-263MG): > 5 µM | IC50 (A388): > 5 µM | IC50 (TGW): > 5 µM | IC50 (ALL-PO): > 5 µM | IC50 (SNU-5): > 5 µM | IC50 (HCC2157): > 5 µM | IC50 (MFH-ino): > 5 µM | IC50 (PSN1): > 5 µM | IC50 (A253 cell line): > 5 µM | IC50 (NCI-H526): > 5 µM | IC50 (JAR): > 5 µM | IC50 (SNU1): > 5 µM | IC50 (MS-1): > 5 µM | IC50 (CAS-1): > 5 µM | IC50 (KGN): > 5 µM | IC50 (KY821): > 5 µM

COc1cc(N2CCN(C)CC2)ccc1Nc1ncc2c(n1)N(C)c1ccccc1C(=O)N2C
IC50 (HT-144): > 8 µM | IC50 (Calu-6): > 8 µM | IC50 (LU-139): 6.86 µM | IC50 (SK-N-FI): > 8 µM | IC50 (no-11): > 8 µM | IC50 (EOL1): > 8 µM | IC50 (NCI-H1304): > 8 µM | IC50 (KM12): > 8 µM | IC50 (BT-474): > 8 µM | IC50 (RXF 393): > 8 µM | IC50 (NCI-H2126): > 8 µM | IC50 (C8166): > 8 µM | IC50 (CTV-1): > 8 µM | IC50 (LU-134-A): > 8 µM | IC50 (EW-16): > 8 µM | IC50 (LAN-6): 7.97 µM | IC50 (Becker): 7.46 µM | IC50 (SJSA-1): > 8 µM | IC50 (SF-126): > 8 µM | IC50 (CTB-1): 7.52 µM | IC50 (HCC2218): > 8 µM | IC50 (SCH): > 8 µM | IC50 (ES6): > 8 µM | IC50 (LB2518-MEL): > 8 µM | IC50 (TE-6): > 8 µM | IC50 (HCC1187): > 8 µM | IC50 (COLO-320-HSR): > 8 µM | IC50 (COLO-824): > 8 µM | IC50 (NMC-G1): > 8 µM | IC50 (HEL): 5.95 µM | IC50 (VA-ES-BJ): > 8 µM | IC50 (D-263MG): > 8 µM | IC50 (A388): 6.57 µM | IC50 (TGW): > 8 µM | IC50 (ALL-PO): 5.74 µM | IC50 (SNU-5): > 8 µM | IC50 (HCC2157): > 8 µM | IC50 (MFH-ino): > 8 µM | IC50 (PSN1): > 8 µM | IC50 (A253 cell line): > 8 µM | IC50 (NCI-H526): > 8 µM | IC50 (JAR): > 8 µM | IC50 (SNU1): > 8 µM | IC50 (MS-1): 4.67 µM | IC50 (CAS-1): > 8 µM | IC50 (KGN): 2.79 µM | IC50 (KY821): > 8 µM
